How the values were obtained:
[1] = tested on: human umbilical vein endothelial cells (HUVECs); experiment: static gravity adherence assay with dip rinse: erythrocyte adherence to endothelial monolayers; assay type: cell-based; conditions: for percent adherence of nonsickle RBCs to thrombin-treated endothelium with agent / percent adherence of nonsickle RBCs to untreated endothelium with agent / percent adherence of sickle cells to thrombin-treated endothelium with agent / percent adherence of sickle cells to untreated endothelium with agent: mean±SEM, 100% = nonsickle RBCs on untreated HUVECs, mAbs 1:200, sLeX 100 μM, sialidase 0.1 U/mL; for percent adherence of nonsickle RBCs to thrombin-treated endothelium with agent / percent adherence of nonsickle RBCs to untreated endothelium with agent / percent adherence of sickle cells to thrombin-treated endothelium with agent / percent adherence of sickle cells to untreated endothelium with agent / reduction of adherence of nonsickle RBCs to untreated endothelium: sLac 500 μM; for reduction of adherence of nonsickle RBCs to thrombin-treated endothelium / reduction of adherence of nonsickle RBCs to untreated endothelium / reduction of adherence of sickle cells to thrombin-treated endothelium / reduction of adherence of sickle cells to untreated endothelium: static, vs no agent, sialidase 0.1 U/mL on RBCs; for reduction of adherence of nonsickle RBCs to thrombin-treated endothelium / reduction of adherence of sickle cells to thrombin-treated endothelium: HUVECs 0.1 U/mL thrombin 5 min; for reduction of adherence of nonsickle RBCs to thrombin-treated endothelium / reduction of adherence of sickle cells to thrombin-treated endothelium / reduction of adherence of sickle cells to untreated endothelium: mAbs 1:200, sLac 500 μM; for reduction of adherence of nonsickle RBCs to untreated endothelium / reduction of adherence of sickle cells to untreated endothelium: untreated HUVECs; for reduction of adherence of nonsickle RBCs to untreated endothelium: mAbs 1:200 on HUVECs; for reduction of adherence of sickle cells to thrombin-treated endothelium / reduction of adherence of sickle cells to untreated endothelium: sickle RBCs; for reduction of adherence compared with sLac present: 100 μM sLeX
Protocol: Thrombin treatment of human umbilical vein endothelial cells (HUVECs) and the static gravity adherence assay with dip rinse were performed as previously described. When 90% confluent, HUVECs (Clonetics, San Diego, Calif.) were treated with 0.1 U/mL thrombin (Sigma Chemicals, St Louis, Mo.) or medium alone for 5 minutes before assaying erythrocyte adherence. Adherent RBCs were counted microscopically in 8 randomly selected 0.15-mm2 fields for each study condition. The adherence data may be presented as percent adherence where 100% is the mean adherence of nonsickle RBCs to untreated HUVECs.
Because of potential modulatory effects of heparin on adherence, the static adherence assay was used to compare the adhesivity of sickle cells and autologous plasma according to whether they were prepared with citrate anticoagulant or with heparin. […] The contribution of P-selectin to thrombin-enhanced adherence was determined by comparing the effects on adherence of exposing HUVECs to no antibody, a 1:200 dilution of nonblocking P-selectin monoclonal antibodies (mAbs) AC1.2 (BD Pharmingen, San Diego, Calif.), or a 1:200 dilution of blocking P-selectin mAb 9E1 (R & D Systems, Minneapolis, Minn.).
(§1) To determine whether sialic acid on erythrocytes is a recognition determinant for P-selectin, prior to testing RBC adherence the erythrocytes were treated with sialidase using a published method. Packed RBCs were mixed with an equal volume of buffer or 0.1 U/mL Vibrio cholerae sialidase (Calbiochem, San Diego).
(§2) For each experiment mean adherence was set arbitrarily at 100% for the control data. The mean adherence of data derived from perturbations of control conditions were calculated as a percentage relative to the control. The average of the means from replicate experiments was then calculated. The uncertainty of the estimate of the means from the data distributed in each set is described as SEM. An SEM of 0% resulted when control data sets were normalized to 100%. We used the paired one-tailed Student test to compare changes in adhesion resulting from different perturbations of the system.

P-selectin-Ig chimera = experiment: nonstatic rotatory adherence assay: erythrocytes on immobilized P-selectin-Ig chimera; assay type: cell-based, human; conditions: for percent adherence of nonsickle cells to P-selectin with agent / percent adherence of sickle cells to P-selectin with agent: mean±SEM, 100% = untreated nonsickle erythrocytes on BSA or Siglec, 5 mM EDTA or sialidase; for reduction of adherence of nonsickle cells to P-selectin / reduction of adherence of sickle cells to P-selectin: 5 mM EDTA present or RBCs pretreated with 0.1 U/mL sialidase
Protocol: (§3) 400 ng bovine serum albumin (BSA; Sigma), a sialic acid-binding lectin (Siglec)-6-Ig chimera, mutated Siglec-7-Ig chimera, or P-selectin-Ig chimera was immobilized on microtiter wells. […] These chimeras were applied to the wells in 10 mM carbonate buffer overnight and then blocked with 0.5% BSA in Hanks buffered salt solution (University of California, San Francisco, Cell Culture Facility) before incubation with RBCs using a published rotatory adhesion assay. Erythrocyte adherence to BSA, Siglec-6, mutant Siglec-7, or P-selectin was measured as the number of RBCs observed in 8 random 0.04-mm2 fields for each condition. The adherence data are presented as percent adherence where 100% is the mean number of untreated nonsickle erythrocytes/field in a well in which BSA or Siglec was immobilized.
as §1, with “Diego). […] Efficacy of sialidase on RBCs was confirmed by agglutination with peanut extract lectin (Arachis hypogea lectin, Sigma).” for “Diego).”
as §2

Siglec-6-Ig chimera = experiment: nonstatic rotatory adherence assay: erythrocytes on immobilized control Siglec-6-Ig chimera; assay type: cell-based, human; conditions: mean±SEM, RBCs pretreated with sialidase
Protocol: as §3
as §1, with “Diego). […]” for “Diego).”
For each experiment mean adherence was set arbitrarily at 100% for the control data. The mean adherence of data derived from perturbations of control conditions were calculated as a percentage relative to the control. The average of the means from replicate experiments was then calculated. […]

RBCs = experiment: hemolysis of sialidase-treated RBCs by colorimetric spectrophotometry; assay type: cell-based, human; conditions: 0.1 U/mL sialidase
Protocol: as §1, with “Diego). […] Efficacy of sialidase on RBCs was confirmed by agglutination with peanut extract lectin (Arachis hypogea lectin, Sigma).” for “Diego).”

[2] = tested on: thrombin-treated HUVECs (endothelial cell P-selectin); experiment: parallel plate flow adhesion of sickle erythrocytes to HUVECs; assay type: cell-based, human; conditions: n=10
From the text: Blood samples obtained from subjects with sickle cell disease and from healthy control subjects, as approved by the Committee on Human Research at the University of California-San Francisco (UCSF), were drawn into citrate. The buffy coat was removed after the initial centrifugation and after each of 3 subsequent washes of the remaining erythrocytes in phosphate buffered saline (PBS) and one wash in HAH buffer (Hanks balanced salt solution [HBSS; UCSF Cell Culture Facility, San Francisco, Calif.], 1% bovine serum albumin [BSA, Fraction V; Sigma, St Louis, Mo.], 50 mM HEPES [N-2-hydroxyethylpiperazine-N′-2- ethanesulfonic acid; Sigma], pH 7.40). Erythrocytes to be used in flow adhesion studies were suspended to a 0.5% hematocrit. To assess for leukocyte contamination, the erythrocyte preparation was exposed to 10 μg/mL rhodamine 6G, which stains leukocytes but not erythrocytes, and washed 3 times in HAH. No leukocytes were detected in the erythrocyte suspensions prepared using the above protocol. […]
Rolling cells were defined as those sickle cells that were in the same microscopic focal plane as the immobile surface or endothelial monolayer and moving at a distinctly slower velocity than the bulk flow. Those cells determined to be rolling were in contact with the substrata throughout their entire transit through the field of observation, which excludes those cells in brief transient contact with the substrate. Data on rolling adherence are expressed as the mean numbers of rolling red blood cells (cells/mm^2) and the mean rolling velocity of these cells (mm/s) from multiple experiments; error is expressed as SEM. The microscopic field in which adherent cells were measured has an area of 0.15 mm^2 and a volume of 0.038 mm^3. […] The velocity of rolling cells was determined by the time required for a cell to roll across the 0.5-mm field (0.5 mm/s). […] Data on firm adhesion are expressed as the mean numbers of firmly adherent red blood cells in the area described above. Statistical significance was determined using the Student t test. […]

[3] = HUVECs treated with 0.1 U/mL thrombin for 5 minutes vs untreated
[4] = erythrocytes pretreated with 0.02% trypsin, data not shown

Molecule | percent adherence of nonsickle RBCs to thrombin-treated endothelium with agent [1] | percent adherence of nonsickle RBCs to untreated endothelium with agent [1] | percent adherence of sickle cells to thrombin-treated endothelium with agent [1] | percent adherence of sickle cells to untreated endothelium with agent [1] | reduction of adherence of nonsickle RBCs to thrombin-treated endothelium [1] | reduction of adherence of nonsickle RBCs to untreated endothelium [1] | reduction of adherence of sickle cells to thrombin-treated endothelium [1] | reduction of adherence of sickle cells to untreated endothelium [1] | percent adherence of nonsickle cells to P-selectin with agent (P-selectin-Ig chimera) | percent adherence of sickle cells to P-selectin with agent (P-selectin-Ig chimera) | reduction of adherence of nonsickle cells to P-selectin (P-selectin-Ig chimera) | reduction of adherence of sickle cells to P-selectin (P-selectin-Ig chimera) [%] | also measured
sialidase: Vibrio cholerae sialidase (Calbiochem) used to treat RBCs | 68%±15% | 53%±13% | 282%±133% | 191%±67% | 81% | 47% | 63% | 36% | 88%±11% | 182%+17% | no significant effect | 33 | percent adherence of nonsickle cells to Siglec-6 after sialidase (Siglec-6-Ig chimera; nonsickle cells): 79%±13%; percent adherence of sickle cells to Siglec-6 after sialidase (Siglec-6-Ig chimera; sickle cells): 157%±18%; hemolysis (RBCs): No hemolysis was detected
O=C(O)CN(CCN(CC(=O)O)CC(=O)O)CC(=O)O [EDTA] | – | – | – | – | – | – | – | – | 95%±11% | 177%±18% | 35% | 32 | –
thrombin | – | – | – | – | – | – | – | – | – | – | – | – | decrease in rolling velocities of sickle cells [2, 3]: 26%; increase in number of rolling sickle cells [2, 3]: 54%; increase in number of firmly adhered sickle cells ([2]; thrombin treatment of HUVECs vs untreated): 130%
CC(=O)NC1C(O)CC(OC2C(O)C(CO)OC(OC3C(CO)OC(O)C(NC(C)=O)C3OC3OC(C)C(O)C(O)C3O)C2O)(C(=O)O)OC1C(O)C(O)CO (stereo not shown) [sLeX, sialyl Lewis X (sLeX) tetrasaccharide] | 82%±41% | 55%±12% | 196%±38% | 91±8% | – | – | – | – | – | – | – | – | reduction of adherence compared with sLac present ([1]; nonsickle cells, thrombin-treated endothelial cells): 49%; reduction of adherence compared with sLac present ([1]; nonsickle cells, untreated endothelial cells, not significant): ~48%; reduction of adherence compared with sLac present ([1]; sickle cells, thrombin-treated endothelial cells): 36%; reduction of adherence compared with sLac present ([1]; sickle cells, untreated endothelial cells, not significant): ~37%
CC(=O)N[C@H]1[C@H]([C@H](O)[C@H](O)CO)O[C@@](O[C@H]2[C@@H](O)[C@@H](CO)O[C@@H](O[C@H]3[C@H](O)[C@@H](O)C(O)O[C@@H]3CO)[C@@H]2O)(C(=O)O)C[C@@H]1O (stereo partly shown) [sLac, 3′-sialyl-lactose] | 162%±28% | 105%±15% | 304%±74% | 144%±44% | Neither did sLac reduce significantly | not reduced significantly | Neither did sLac reduce significantly | not reduced significantly | – | – | – | – | –
trypsin: protease used at 0.02% to pretreat erythrocytes (protein, UniProt P00760 24-246, looked up) Serine protease 1: IVGGYTCGANTVPYQVSLNSGYHFCGGSLINSQWVVSAAHCYKSGIQVRLGEDNINVVEGNEQFISASKSIVHPSYNSNTLNNDIMLIKLKSAASLNSRVASISLPTSCASAGTQCLISGWGNTKSSGTSYPDVLKCLKAPILSDSSCKSAYPGQITSNMFCAGYLEGGKDSCQGDSGGPVVCSGKLQGIVSWGSGCAQKNKPGVYTKVCNYVSWIKQTIASN | – | – | – | – | – | – | – | – | – | – | – | – | adherence of sickle and nonsickle cells to untreated and thrombin-treated endothelial cells [1, 4]: reduced substantially; adhesion of sickle and nonsickle cells to immobilized P-selectin (P-selectin-Ig chimera; [4]): did not reduce significantly

— patent publication US20080112955A1, “METHOD AND COMPOSITION FOR PREVENTING PAIN IN SICKLE CELL PATIENTS” (TRF PHARMA, INC., priority 2002, published 2008)
